# Measured values: US7329661B2, “N-phenyl-3-pyrimidine-amine derivatives” (Novartis AG, priority 2000, dated 2008)
# Assays:
# [1] = system: certain cytochrome P450 enzymes; assay: Cytochrome P450 inhibition in vitro; assay type: in vitro ADME, human
# Source text: (§1) In order to evaluate the effect of the compounds of formula I on cytochromes P450 (CYPs), e.g. enzyme inhibition is routinely assessed by performing in vitro inhibition studies using cDNA-expressed enzymes or human liver microsomes (Parkinson, A., Toxicol. Pathol. 24, 45-57 [1996]). Specific drug marker substrate assays according to Tucker et al., Clin. Pharmacol. Ther. 70, 103-114 (2001) can be used to determine the 50% inhibition concentration (IC50) of a compound of formula I for the principal drug-metabolizing P450 enzymes such as e.g. CYP1A2, CYP2A6, CYP2B6, CYP2C8, CYP2C9, CYP2C19, CYP2D6, CYP2E1, CYP3A4/5 and CP4A9/11.
# (§2) Inhibition constants Ki or IC50 values derived by these in vitro assays provide a measure for the inhibition capacity of the tested drug compound according to the ratio of drug concentration in plasma to the respective inhibition constant Ki, where a ratio of >1.0 results in a high risk, 1.0-0.1 in a medium risk, and <0.1 in a low risk of metabolic drug interaction.
# [2] = biological target: CYP2D6 (Homo sapiens, UniProt P10635); assay: Risk of metabolic drug interaction from in vitro P450 inhibition, CYP2D6; assay type: in vitro ADME; conditions: ratio of plasma concentration to Ki
# Sequence of CYP2D6 (P10635 whole entry): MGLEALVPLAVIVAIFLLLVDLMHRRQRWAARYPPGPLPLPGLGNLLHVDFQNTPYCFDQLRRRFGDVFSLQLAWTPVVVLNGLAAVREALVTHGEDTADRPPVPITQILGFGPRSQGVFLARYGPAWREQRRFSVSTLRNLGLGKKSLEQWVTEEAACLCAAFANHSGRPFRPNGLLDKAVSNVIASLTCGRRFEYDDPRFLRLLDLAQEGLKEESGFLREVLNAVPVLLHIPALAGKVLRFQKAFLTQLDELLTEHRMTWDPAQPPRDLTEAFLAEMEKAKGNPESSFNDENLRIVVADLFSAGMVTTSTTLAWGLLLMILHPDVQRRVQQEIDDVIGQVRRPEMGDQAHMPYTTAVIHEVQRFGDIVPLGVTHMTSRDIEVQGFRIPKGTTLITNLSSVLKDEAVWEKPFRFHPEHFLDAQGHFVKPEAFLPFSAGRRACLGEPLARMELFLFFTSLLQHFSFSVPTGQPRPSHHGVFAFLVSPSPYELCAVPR
# Source text: as §1, §2
# [3] = system: CYP3A4/5; assay: Risk of metabolic drug interaction from in vitro P450 inhibition, CYP3A4/5; assay type: in vitro ADME, human; conditions: ratio of plasma concentration to Ki
# Source text: as §1, §2
# [4] = Human plasma level and half-life; assay type: in vivo
Compound,melting point [°C],inhibition of certain cytochrome P450 enzymes compared with STI571 [1],risk of drug-drug interactions compared with STI571 [2],risk of drug-drug interactions compared with STI571 [3],half-life compared with STI571 [4]
"CCN1CCN(Cc2ccc(C(=O)Nc3ccc(C)c(Nc4nccc(-c5cccnc5)n4)c3)cc2)CC1 [Example 1, 4-(4-ethyl-piperazin-1-ylmethyl)-N-[4-methyl-3-(4-pyridin-3-yl-pyrimidin-2-ylamino)-phenyl]-benzamide]",209.5 to 210.5,–,–,–,–
"Cc1ccc(NC(=O)c2ccc(CN3CCNCC3)cc2)cc1Nc1nccc(-c2cccnc2)n1 [Example 9, N-[4-methyl-3-(4-pyridin-3-yl-pyrimidin-2-ylamino)-phenyl]-4-piperazin-1-ylmethyl-benzamide]",–,less inhibition,much lower risk,much lower risk,somewhat longer than that of STI571
"CS(=O)(=O)O.Cc1ccc(NC(=O)c2ccc(CN3CCNCC3)cc2)cc1Nc1nccc(-c2cccnc2)n1 [Example 10, N-[4-methyl-3-(4-pyridin-3-yl-pyrimidin-2-ylamino)-phenyl]-4-piperazin-1-ylmethyl-benzamide methanesulfonate]",242 to 245,–,–,–,–
